Experimental data as given in a melting point compilation (Tetko et al.; mined from patent text by program, amines drawn as free bases though some values may be those of a salt).

SMILES | melting point
CN(C)c1ccc(C2(Oc3ccccc3)OC(=O)c3ccc(N(C)C)cc32)cc1 (stereo not drawn) | 158 to 159 °C
CCCc1c(OCc2ccc(CC#N)cc2)ccc(C(C)=O)c1O | 75 to 76 °C
Cc1c(/C=C/C(=O)c2ccccc2)ncn1C(c1ccccc1)(c1ccccc1)c1ccccc1 | 209 to 211 °C
COC(=O)COc1ccc(C(=O)CCCl)cc1 | 89 to 90 °C
CS(=O)(=O)C(=C1CN(C(c2ccccc2)c2ccccc2)C1)c1cccc(N)c1 | 197 °C
CCC(C)CCCCCCCCCCCCCCCCC(=O)O (stereo not drawn) | 53 °C
O=C(CCCCCCCNC(=O)OCc1ccccc1)Nc1cccc(C(=O)O)c1 | 167 to 168 °C
NC(=O)c1cn(C(CO)c2ccccc2)cn1 (stereo not drawn) | 147 to 149 °C
FC(F)(F)C(c1cc(-c2ccccc2)c(-c2ccccc2)[nH]1)C(F)(F)F | 112 to 114 °C
CS(=O)(=O)c1cc(OC[C@@H](O)CN[C@H]2CC[C@H](c3ccc(C(=O)N4Cc5ccccc5C4)cc3)CC2)ccc1O | 110 °C
COc1cccc(CNC(=O)c2ccc(CCl)cc2)c1 | 108 to 110 °C
COc1ccc2c3c1OC1C(=O)C=CC4C(C2)N(C)CCC314 (stereo not drawn) | 177 to 180 °C
NC(=O)c1cc2c(Sc3ccccn3)cncc2s1 | 239 to 242 °C
Cc1ccc(O[C@@H](Cc2ccc(O)cc2)C(=O)OCC[Si](C)(C)C)cc1 | 94 to 95 °C
OCCCN1CCN(C(c2ccccc2)c2ccccc2)CC1 | 126 to 128 °C
O=C(C=Cc1ccc(-c2nnn[nH]2)cc1)N1CCc2c([nH]c3ccccc23)C1c1ccc2c(c1)OCO2 (stereo not drawn) | 232 to 233 °C
COC(=O)c1cccc(N)c1S | 174 to 175 °C
CC(C)(C)OC(=O)N1CC(NS(=O)(=O)c2ccc(Oc3ccccc3)cc2)C(SC(C)(C)C)C1 (stereo not drawn) | 85 to 86 °C
Cc1cccc2c1OC(c1ccccc1)([N+](=O)[O-])C2 (stereo not drawn) | 122 to 126 °C
C[C@H](NC(=O)c1c[nH]c2ncc(C3CC3)nc12)C(C)(C)O | 272 to 274 °C
COc1ccc(Sc2ccccc2C(C)C)cc1 | 63 to 65 °C
O=C1CCC(c2c[nH]c3cccc(F)c23)CC1 | 104 to 106 °C

SMILES | melting point
N#CCC(=O)c1ccc(Br)cc1 | 164 °C
CC(C)OC(=O)NCc1cccc(-c2ccccc2)c1 | 61 to 64 °C
Nc1nc2cc(C(=O)c3ccccc3)ccc2n1CCC(=O)O | 325 to 330 °C
COC(=O)c1ccc(N2CCN(Cc3ccccc3)CC2)cc1 | 105 to 107 °C
COc1cccc(C(O)CNC(=C[N+](=O)[O-])NCCCl)c1 (stereo not drawn) | 127 to 130 °C
C=CCCCc1cnc(-c2ccc(F)cc2)nc1 | 21.8 °C
CC=C1CCC2C3CC=C4CC(OC(C)=O)CC(OC(C)=O)C4(C)C3CCC12C (stereo not drawn) | 90 to 91 °C
O=C(NC(=O)c1c(F)cccc1F)Nc1ccc(S(=O)(=O)C(F)(F)C(F)F)cc1F | 186 to 187 °C
O=[N+]([O-])c1ccc(NCCNS(=O)(=O)c2ccccc2)cc1 | 171 °C
CNc1c(OC)cc(Cc2cnc(N)nc2N)cc1OC | 204 °C
C#CCP(=O)(O)CCCN | 172 to 173 °C
CC(C)C1NC(=O)[C@H](CS)NC1=O (stereo partly drawn) | > 275 °C
CC(C)(CF)C(O)(Cn1ncnc1S)C(Cl)=CCl (stereo not drawn) | 162 to 164 °C
CCc1cccc2c1C(=O)N1CCC[C@H]1c1c(C(=O)OC(C)(C)C)ncn1-2 | 155 to 156 °C
CC(=O)c1cc2c(s1)CCCC2NC(N)=O (stereo not drawn) | 218 to 220 °C
C/C(=C\F)CN1C(=O)c2ccccc2C1=O | 57 to 58 °C
CC(C)[C@H](O)C(=O)NCCc1ccccc1 | 100 °C
CCC(Oc1ccc(C(C)(C)CC)cc1C(C)(C)CC)C(=O)Nc1ccc(Cl)c(NC(=O)C(C(=O)C(C)(C)C)N2C(=O)NC(=C(C)C)C2=O)c1 (stereo not drawn) | 178 to 179 °C
COc1cc2[nH]c(=O)c([N+](=O)[O-])c(C(F)(F)F)c2cc1OC | 270 °C
CC1(C)OCc2cc(C(O)CNCCCCCCOCCCCc3ccccc3)ccc2O1 (stereo not drawn) | 68 to 70 °C
O=S(=O)(CCc1ccccc1)CCc1ccccc1 | 98 to 99 °C
COc1ccc(COC(=O)[C@H]2CC[C@H](C(=O)O)CC2)cc1 | 87 to 89 °C

SMILES | melting point
Cc1ccc(-c2nc(CI)c(C)o2)cc1 | 104 to 105 °C
CSc1nc(N)ncc1S(=O)(=O)NC(=O)NC(C)C | 190 to 192 °C
N#CCCn1nc(O)nc1Cl | 149 to 150 °C
CC1(C)C(C(=O)Nc2ccccc2)C1(C)C | 149 °C
CCOC(=O)N1CCc2onc(Cl)c2C1 | 40 to 42 °C
CC1(C)NCC(c2ccccc2)=NO1 | 93 to 95 °C
CC(=O)OC1CSC(Oc2ccc(-c3cncnc3)nc2Cl)C(OC(C)=O)C1OC(C)=O (stereo not drawn) | 168 °C
CCOC(=O)c1[nH]c(=O)c(CC(C)C)[n+]([O-])c1O | 153 to 155 °C
CN(C)C=C1Cc2cc(Cl)ccc2C1=O | 148 to 150 °C
COc1ccc(N2CCN(Cc3ccc(CNC(C)=O)cc3)CC2)cc1 | 137 to 138 °C
O=C(NC1CCN(CCCC2=CCc3ccccc32)CC1)c1ccccc1 | 157 to 159 °C
CN1C(=O)SC(=Cc2ccc([N+](=O)[O-])cc2)C1=O | 233 to 234 °C
COC(=O)C(F)=CCS(=O)(=O)c1ccccc1 | 104 to 105 °C
CC(C)(C)OC(=O)C(O)CC1CCC(=O)N1 (stereo not drawn) | 110 to 112 °C
COC(=O)COc1c(OC)cc(C=O)cc1OC | 99 to 100 °C
CCOC(=O)c1cc(OC)c2oc(C)c(C)c2c1 | 67 to 68 °C
Cc1ccc(NC(=O)Nc2ccc(N(CCCl)CCCl)cc2)cc1Nc1c2cccc(C)c2nc2c(C(=O)NCCN(C)C)cccc12 | 286 to 289 °C
CN1CC=C(c2c[nH]c3c(Cl)c(Cl)ccc23)CC1 | 246 to 249 °C
CCOC(=O)C1=CC(C(=O)c2ccccc2O)=CN2CCc3c([nH]c4ccccc34)C12C(=O)OCC (stereo not drawn) | 209 °C
COc1ccc(Nc2nc(C)c(-c3nc4ccccc4c(=O)n3-c3ccc(Cl)cc3)s2)cc1 | > 275 °C
Cc1ccc2c(c1)[nH]c(=O)n2CCCOS(C)(=O)=O | 125 °C

Other lines, results leading:

melting point | SMILES
68 to 75 °C | COC(=O)C(c1ccc(OCCNC(=O)C2Cc3ccccc3N2S(=O)(=O)c2ccc(-c3cc(C(F)(F)F)ccc3Cl)cc2)cc1)C(C)C (stereo not drawn)
251 to 253 °C | O=C1c2ccc(F)cc2C(=O)c2cc3cc(F)ccc3cc21
258 to 266 °C | CN=C(O)c1cc(Cl)c(Sc2ccccc2C(=O)O)cc1C(=O)O
176 to 177 °C | CCCS(=O)(=O)c1cc([C@H]2CC[C@H](c3cc(OC)c(OC)c(OC)c3)O2)cc(OC)c1OCc1ccccc1 (relative stereo)
133 to 135 °C | N#Cc1cc(Cl)cc(Oc2ccc(CC(=O)Nc3ccc(CS(N)(=O)=O)cc3)cc2Br)c1
184 to 187 °C | COC(=O)c1cc2cc(C(=O)c3cccs3)c(Cl)c(Cl)c2o1
233 to 235 °C | O=C(CC1CCCCC1)Nc1c(Cl)ccc2nc(N3CCC(c4noc(=O)[nH]4)CC3)ccc12
146 to 149 °C | Cn1cc(CO)c(=O)c2ccc(C(C)(C)C)cc21
171 to 174 °C | O=C(NC1CCC1)c1ccc(-c2ccc3nnn(Cc4ccc5ncccc5c4)c3n2)cc1F
223 °C | CC(=O)NCc1cn(-c2ccc(-n3cncn3)c(F)c2)nn1
233 to 234 °C | O=C(O)c1c(-c2ccccc2)c2cc(Cl)c(Cl)cc2oc1=O
198 to 199 °C | NS(=O)(=O)c1ccc(-n2cccc2-c2ccc(F)cc2)cc1
224 °C | Nc1ccc(S(=O)(=O)Nc2ccc(Cl)cc2Cl)cc1C(=O)O
157 to 159 °C | COc1ccc(-c2nc(C(F)(F)F)c[nH]2)cc1OC1CCCC1
217 to 219 °C | Cn1cc(C2=C(c3cn4c5c(cccc35)CCC4)C(=O)OC2=O)c2ccccc21
291 to 292 °C | Cc1sc2[nH]c(=O)n(Cc3ccc(Cl)cc3)c(=O)c2c1C
152 to 154 °C | COc1cc(Nc2c(C#N)cnc3cc(/C=C/CCN4CCN(C)CC4)ccc23)c(Cl)cc1Cl
172 to 173 °C | CCCC12CCC(=O)C=C1c1c(cc(OC)c(Cl)c1Cl)O2 (stereo not drawn)
230 to 232 °C | NC(=O)c1nc(-c2cncc(Cl)c2)nc2c1[nH]c(=O)n2-c1ccccc1C(F)(F)F

melting point | SMILES
> 350 °C | O=C(O)c1ccc(-c2cnc3[nH]c(=O)n(CC4CCCCC4)c3n2)cc1
147 to 148 °C | CCOc1cc(Oc2ccc(S(C)(=O)=O)nc2)cc2cc(C3=NCC(CCO)S3)[nH]c12 (stereo not drawn)
199 to 200 °C | COc1ccc2c(c1)c(O)c(C(=O)Nc1ccccc1)c(=O)n2C
181 to 182 °C | COC(=O)CCc1cn(Cc2ccc(C(=O)O)cc2OC)c2cc(C(=O)NCC3CCCC3)ccc12
206 to 210 °C | O=C1COc2cc(F)c(N3C(=O)C4=C(CCCC4)C3=O)cc2N1Cc1ccon1
148 to 149 °C | O=C(c1cccc(Cl)c1)C1C(=O)c2ccccc2C1=O
163 to 166 °C | Nc1cccc(Cn2c(-c3ccc(C4=CC=CNC4)cc3)ccc2-c2ccccc2Cl)n1
120 to 125 °C | COc1ccc(C(Cl)=NS(=O)(=O)C=Cc2ccc(Cl)c(Cl)c2)cc1OC
136 to 137 °C | CC(C)c1cc(OCC(=O)O)cc2c1C(=O)N(COC(=O)c1c(Cl)cccc1Cl)S2(=O)=O
149 °C | CC(C)(CO)CNc1nccc(-c2c(-c3ccc(F)cc3)nc3occn23)n1
144 to 145 °C | OCC1OC(n2c(Cl)c(-c3ccsc3)c3cc(Cl)c(Cl)cc32)CC1O (stereo not drawn)
127 to 128 °C | CCn1cnc2c(Nc3cccc(Cl)c3)nc(Cl)nc21
93 °C | Clc1ccccc1-c1cc[nH]n1
150 to 152 °C | CC(=O)Nc1ccc(C=CC(=O)c2ccc(OCC=C(C)C)cc2O)cc1
156 °C | C[Si](C)(C)OC(C(N)=O)(C(N)=O)c1ccc(Cl)c(Cl)c1
207 to 208 °C | COc1ccc(C2=NNC(=O)CC2)cc1CO
145 to 146 °C | COC1CCN(Cc2ccc(C#CC(=O)Nc3ccc(-c4ccc(Cl)cc4)cc3)cc2)CC1
152 to 154 °C | CCOC(=O)Cc1csc(-c2c(O)cccc2O)n1
168 to 169 °C | CCCc1nc2cc(C(=O)c3ccccc3)ccc2n1Cc1ccc(Cl)c(Cl)c1
